One sequence from patent publication US20220107317A1, “COMPOSITIONS AND METHODS FOR DIAGNOSING AND TREATING CORONAVIRUS DISEASE 2019” (priority 2020, published 2022) can be followed below.

In the experiment the target is SARS-CoV-2 spike protein RBD (Severe acute respiratory syndrome coronavirus 2, UniProt P0DTC2). The settings on record: spike protein RBD and dimer of spike protein RBD, FIG. 4.

On to “DLSGFVRPDPVIISSPLSTFFSDAGYKSLLKITMTQSTVPLNLIRVHLMVAVEG HLFQKSFQASPNLAYTFIWDKTDAYGQRVYGLSDAVVSVGFEYETCPSLILW EKRTALLQGFELD [T2 peptide]”, for which the “binding in Western blot” value is “binding between T2 peptide to both spike protein RBD and the dimer of spike protein RBD”.
